In patent publication US20230250060A1 (IFM Due, Inc., priority 2022, published 2023):

Target: T1, STING (Homo sapiens, UniProt Q86WV6, G230A/H232R/R293Q/R71H)
T1 construct: host or cells: THP1-Dual KO-IFNAR2 cells
Assay: STING reporter assay (luciferase) in THP1-Dual KO-IFNAR2 cells stimulated with 2′3′cGAMP
Type: cell-based
Settings: 2′3′cGAMP 15 μM final, 24 h, luciferase reporter activity, read-out: Pharmaron, THP1_IFNAR2 STING 24 h Luci Normalized: GeoMean EC50
Experimental: STING pathway activation by the compounds described herein was measured using TTIP1-Dual™ cells (KO-IFNAR2).
TTIP1-Dual™ KO-IFNAR2 Cells (obtained from invivogen) were maintained in RPMI, 10% FCS, 5 ml P/S, 2 mM L-glut, 10 mM Hepes, and 1 mM sodium pyruvate. Compounds were spotted in empty 384 well tissue culture plates (Greiner 781182) by Echo for a final concentration of 0.0017-100 μM. Cells were plated into the TC plates at 40 μL per well, 2×10E6 cells/mL. For activation with STING ligand, 2′3′cGAMP (MW 718.38, obtained from Invivogen), was prepared in Optimem media.
The following solutions were prepared for each 1×384 plate: • Solution A: 2 mL Optimem with one of the following stimuli: • […] • Solution B: 2 mL Optimem with […] Lipofectamine 2000→Incubate 5 min at RT
2 mL of solution A and 2 ml Solution B was mixed and incubated for 20 min at room temperature (RT). 20 μL of transfection solution (A+B) was added on top of the plated cells, with a final 2′3′cGAMP concentration of 15 μM. The plates were then centrifuged immediately at 340 g for 1 minute, after which they were incubated at 37° C., 5% CO2, >98% humidity for 24 h. Luciferase reporter activity was then measured. EC50 values were calculated by using standard methods known in the art.
Luciferase reporter assay: 10 μL of supernatant from the assay was transferred to white 384-plate with flat bottom and squared wells. One pouch of QUANTI-Luc™ Plus was dissolved in 25 mL of water. 100 μL of QLC Stabilizer per 25 mL of QUANTI-Luc™ Plus solution was added. 50 μL of QUANTI-Luc™ Plus/QLC solution per well was then added. Luminescence was measured on a Platereader (e.g., Spectramax I3X (Molecular Devices GF3637001)).
Luciferase reporter activity was then measured. EC50 values were calculated by using standard methods known in the art.

T1 sequence (Q86WV6 whole entry R71H/G230A/H232R/R293Q): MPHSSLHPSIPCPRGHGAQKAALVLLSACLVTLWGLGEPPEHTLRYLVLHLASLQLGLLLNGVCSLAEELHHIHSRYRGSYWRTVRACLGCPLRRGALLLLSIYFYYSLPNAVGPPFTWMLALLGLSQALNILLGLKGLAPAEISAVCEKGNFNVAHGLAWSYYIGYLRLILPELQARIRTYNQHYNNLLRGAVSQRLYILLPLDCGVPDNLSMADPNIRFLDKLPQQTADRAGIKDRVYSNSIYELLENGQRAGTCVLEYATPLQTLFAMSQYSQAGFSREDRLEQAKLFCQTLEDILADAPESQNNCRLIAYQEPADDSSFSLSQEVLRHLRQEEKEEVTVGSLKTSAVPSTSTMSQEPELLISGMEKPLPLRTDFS

SMILES | EC50
Cc1noc(C)c1C(=O)Nc1c[nH]c2ccc(CCOc3ccc(C(F)(F)F)cc3)cc12 [Compound 119, 3,5-dimethyl-N-(5-(2-(4-(trifluoromethyl)phenoxy)ethyl)-1H-indol-3-yl)isoxazole-4-carboxamide] | 200 to 1000 nM
O=C(CC1CC1)Nc1c[nH]c2ccc(CCOc3ccc(C(F)(F)F)cc3)cc12 [Compound 197, 2-cyclopropyl-N-(5-(2-(4-(trifluoromethyl)phenoxy)ethyl)-1H-indol-3-yl)acetamide] | 200 to 1000 nM
O=C(Nc1c[nH]c2ccc(O[C@H]3C[C@H](c4ccc(C(F)(F)F)cc4)C3)cc12)C1CC12CCC2 (stereo partly drawn) [Compound 230, N-{5-[(1R,3R)-3-[4-(trifluoromethyl)phenyl]cyclobutoxy]-1H-indol-3-yl}spiro[2.3]hexane-1-carboxamide] | 40 to 200 nM
O=C(Nc1c[nH]c2ccc(O[C@H]3C[C@H](c4ccc(C(F)(F)F)nc4)C3)cc12)c1ccccc1 [Compound 215, N-(5-(trans-3-(6-(trifluoromethyl)pyridin-3-yl)cyclobutoxy)-1H-indol-3-yl)benzamide] | 200 to 1000 nM
Cn1nccc1C(=O)Nc1c[nH]c2ccc(OCC[C@@H]3C[C@@H]4CN(CC(F)(F)F)C[C@@H]4C3)cc12 [Compound 181, 1-methyl-N-(5-(2-((3aR,5r,6aS)-2-(2,2,2-trifluoroethyl)octahydrocyclopenta[c]pyrrol-5-yl)ethoxy)-1H-indol-3-yl)-1H-pyrazole-5-carboxamide] | 200 to 1000 nM
Cn1nccc1C(=O)Nc1c[nH]c2ccc(O[C@H]3C[C@@H](c4ccc(C(F)(F)F)cc4)C3)cc12 [Compound 168, 1-methyl-N-(5-((1s,3s)-3-(4-(trifluoromethyl)phenyl)cyclobutoxy)-1H-indol-3-yl)-1H-pyrazole-5-carboxamide] | 200 to 1000 nM
O=C(Nc1c[nH]c2ccc(O[C@H]3C[C@@H](c4ccc(C(F)(F)F)cc4)C3)cc12)c1cscn1 [Compound 192, N-(5-((1s,3s)-3-(4-(trifluoromethyl)phenyl)cyclobutoxy)-1H-indol-3-yl)thiazole-4-carboxamide] | 200 to 1000 nM
O=C(Nc1c[nH]c2ccc(O[C@H]3C[C@H](c4ccc(C(F)(F)F)cc4)C3)cc12)c1ccncc1 [Compound 225, N-{5-[(1R,3R)-3-[4-(trifluoromethyl)phenyl]cyclobutoxy]-1H-indol-3-yl}pyridine-4-carboxamide] | 200 to 1000 nM
O=C(Nc1c[nH]c2ccc(OCCc3ccc(C(F)(F)F)cc3)cc12)c1ncccc1F [Compound 109, 3-fluoro-N-(5-(4-(trifluoromethyl)phenethoxy)-1H-indol-3-yl)picolinamide] | 200 to 1000 nM
O=C(Nc1c[nH]c2ccc(OCCc3ccc(C(F)(F)F)cc3)cc12)c1ccn[nH]1 [Compound 122, N-(5-(4-(trifluoromethyl)phenethoxy)-1H-indol-3-yl)-1H-pyrazole-5-carboxamide] | 40 to 200 nM
O=C(Nc1c[nH]c2ccc(OCc3ccc(C(F)(F)F)cc3)cc12)C1CC2(CC2)C1 [Compound 221, N-(5-{[4-(trifluoromethyl)phenyl]methoxy}-1H-indol-3-yl)spiro[2.3]hexane-5-carboxamide] | 200 to 1000 nM
O=C(Nc1c[nH]c2ccc(O[C@H]3C[C@H](c4ccc(C(F)(F)F)cc4)C3)cc12)c1ccn[nH]1 [Compound 226, N-{5-[(1R,3R)-3-[4-(trifluoromethyl)phenyl]cyclobutoxy]-1H-indol-3-yl}-1H-pyrazole-5-carboxamide] | 40 to 200 nM
O=C(Nc1c[nH]c2ccc(OCCc3ccc(C(F)(F)F)cc3)cc12)c1cccnc1 [Compound 123, N-(5-(4-(trifluoromethyl)phenethoxy)-1H-indol-3-yl)nicotinamide] | 200 to 1000 nM
O=C(Nc1c[nH]c2ccc(O[C@H]3C[C@@H](c4ccc(C(F)(F)F)cc4)C3)cc12)c1ccn[nH]1 [Compound 167, N-(5-((1s,3s)-3-(4-(trifluoromethyl)phenyl)cyclobutoxy)-1H-indol-3-yl)-1H-pyrazole-5-carboxamide] | 40 to 200 nM
Cn1ccnc1C(=O)Nc1c[nH]c2ccc(OCC[C@@H]3C[C@@H]4CN(CC(F)(F)F)C[C@@H]4C3)cc12 [Compound 140, 1-methyl-N-(5-(2-((3aR,5r,6aS)-2-(2,2,2-trifluoroethyl)octahydrocyclopenta[c]pyrrol-5-yl)ethoxy)-1H-indol-3-yl)-1H-imidazole-2-carboxamide] | 200 to 1000 nM
O=C(Nc1c[nH]c2ccc(OCC[C@@H]3C[C@@H]4CN(CC(F)(F)F)C[C@@H]4C3)cc12)c1ccncc1 [Compound 179, N-(5-(2-((3aR,5r,6aS)-2-(2,2,2-trifluoroethyl)octahydrocyclopenta[c]pyrrol-5-yl)ethoxy)-1H-indol-3-yl)isonicotinamide] | 200 to 1000 nM
Cn1cc(C(=O)Nc2c[nH]c3ccc(OCc4ccc(C(F)(F)F)cc4)cc23)nn1 [Compound 240, 1-methyl-N-(5-((4-(trifluoromethyl)benzyl)oxy)-1H-indol-3-yl)-1H-1,2,3-triazole-4-carboxamide] | 1000 to 5000 nM
O=C(Nc1c[nH]c2ccc(O[C@H]3C[C@@H](c4ccc(C(F)(F)F)cc4)C3)cc12)c1cccnc1 [Compound 169, N-(5-((1s,3s)-3-(4-(trifluoromethyl)phenyl)cyclobutoxy)-1H-indol-3-yl)nicotinamide] | 40 to 200 nM
Cc1oncc1C(=O)Nc1c[nH]c2ccc(O[C@H]3C[C@H](c4ccc(C(F)(F)F)cc4)C3)cc12 [Compound 233, 5-methyl-N-{5-[(1R,3R)-3-[4-(trifluoromethyl)phenyl]cyclobutoxy]-1H-indol-3-yl}-1,2-oxazole-4-carboxamide] | 5000 to 100000 nM
O=C(CC1CC1)Nc1c[nH]c2ccc(OCC[C@@H]3C[C@@H]4CN(CC(F)(F)F)C[C@@H]4C3)cc12 [Compound 184] | 200 to 1000 nM
O=C(Nc1c[nH]c2ccc(CCOc3ccc(C(F)(F)F)cc3)cc12)c1cccnc1 [Compound 195, N-(5-(2-(4-(trifluoromethyl)phenoxy)ethyl)-1H-indol-3-yl)nicotinamide] | 200 to 1000 nM
O=C(Nc1c[nH]c2ccc(OCc3ccc(C(F)(F)F)cc3)cc12)C12CC(C1)C2 [Compound 164, N-(5-((4-(trifluoromethyl)benzyl)oxy)-1H-indol-3-yl)bicyclo[1.1.1]pentane-1-carboxamide] | 200 to 1000 nM
O=C(Nc1c[nH]c2ccc(OCC[C@@H]3C[C@@H]4CN(CC(F)(F)F)C[C@@H]4C3)cc12)C1CC2C(C1)C2(F)F (stereo partly drawn) [Compound 208, 6,6-difluoro-N-(5-(2-((3aR,5r,6aS)-2-(2,2,2-trifluoroethyl)octahydrocyclopenta[c]pyrrol-5-yl)ethoxy)-1H-indol-3-yl)bicyclo[3.1.0]hexane-3-carboxamide] | 200 to 1000 nM
O=C(Nc1c[nH]c2ccc(CCOc3ccc(C(F)(F)F)cc3)cc12)c1ncco1 [Compound 145, N-(5-(2-(4-(trifluoromethyl)phenoxy)ethyl)-1H-indol-3-yl)oxazole-2-carboxamide] | 200 to 1000 nM
O=C(Nc1c[nH]c2ccc(OCCc3ccc(C(F)(F)F)cc3)cc12)c1ccncc1 [Compound 121, N-(5-(4-(trifluoromethyl)phenethoxy)-1H-indol-3-yl)isonicotinamide] | 200 to 1000 nM
Cn1cc(C(=O)Nc2c[nH]c3ccc(O[C@H]4C[C@H](c5ccc(C(F)(F)F)nc5)C4)cc23)nn1 [Compound 219, 1-methyl-N-(5-(trans-3-(6-(trifluoromethyl)pyridin-3-yl)cyclobutoxy)-1H-indol-3-yl)-1H-1,2,3-triazole-4-carboxamide] | 200 to 1000 nM
O=C(Nc1c[nH]c2ccc(OCC[C@@H]3C[C@@H]4CN(CC(F)(F)F)C[C@@H]4C3)cc12)c1cscn1 [Compound 193, N-(5-(2-((3aR,5r,6aS)-2-(2,2,2-trifluoroethyl)octahydrocyclopenta[c]pyrrol-5-yl)ethoxy)-1H-indol-3-yl)thiazole-4-carboxamide] | 200 to 1000 nM
O=C(Nc1c[nH]c2ccc(OCC[C@@H]3C[C@@H]4CN(CC(F)(F)F)C[C@@H]4C3)cc12)C1CC12CCC2 (stereo partly drawn) [Compound 223, N-(5-(2-((3aR,5R,6aS)-2-(2,2,2-trifluoroethyl)octahydrocyclopenta [c]pyrrol-5-yl)ethoxy)-1H-indol-3-yl)spiro[2.3]hexane-1-carboxamide] | 200 to 1000 nM
O=C(Nc1c[nH]c2ccc(OCCc3ccc(C(F)(F)F)cc3)cc12)C1CC12CC2 (stereo not drawn) [Compound 126, N-(5-(4-(trifluoromethyl)phenethoxy)-1H-indol-3-yl)spiro[2.2]pentane-1-carboxamide] | 40 to 200 nM
O=C(Nc1c[nH]c2ccc(CCOc3ccc(C(F)(F)F)cc3)cc12)C1CC12CCC2 (stereo not drawn) [Compound 104, N-(5-(2-(4-(trifluoromethyl)phenoxy)ethyl)-1H-indol-3-yl)spiro[2.3]hexane-1-carboxamide] | 200 to 1000 nM
